One data set deals with T1, TMPRSS13 (Homo sapiens, UniProt Q9BYE2, K566A/R563A/R565A).
T1 construct: Shedding of the TMPRSS13 catalytic domain was detected for both constructs in the cell media; made in house; host or cells: Expi293F cells
T1 sequence (Q9BYE2 with tags, fused parts or gaps isoform Q9BYE2-6 limits assumed): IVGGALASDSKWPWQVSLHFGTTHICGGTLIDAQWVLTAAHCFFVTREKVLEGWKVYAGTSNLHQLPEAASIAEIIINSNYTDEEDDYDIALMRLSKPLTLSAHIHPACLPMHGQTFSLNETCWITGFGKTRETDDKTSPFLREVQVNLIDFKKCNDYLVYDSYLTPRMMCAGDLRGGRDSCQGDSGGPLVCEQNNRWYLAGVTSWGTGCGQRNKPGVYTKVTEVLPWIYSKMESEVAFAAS
As to the kind of experiment: In vitro inhibition assay, recombinant TMPRSS13-AFAAS-6His, Boc-RVRR-AMC. The note with it: dose-response curve, Cheng-Prusoff equation. Format: biochemical. As for the experimental part:
TMPRSS13-AFAAS-6His was expressed via the Expi293 Expression System Kit (Thermo Fisher Scientific, A14635) according to the manufacturer’s instructions and purified via IMAC chromatography. Briefly, Expi293F cells were transfected for 48 h with the TMPRSS13-AFAAS-6His construct, and media containing the shed recombinant protease was injected on a HisTrap Excel column (Cytiva, 17371206) via an ÄKTA Start protein purification system (Cytiva). The bound proteins were then eluted (20 mM sodium phosphate pH 7.4, 500 mM NaCl, and 500 mM imidazole), and the TMPRSS13-containing fractions were dialysed for 16 h at 4 °C in storage buffer (20 mM sodium phosphate pH 7.4, 150 mM NaCl, and 10% glycerol). Proteins were then concentrated via a 10 kDa Amicon Ultra centrifugal filter (Millipore Sigma, UFC8010) and stored at −80 °C.
(§1) Recombinant TMPRSS13-AFAAS-6His (this study) and matriptase[34] were expressed and purified as described. Recombinant human furin, Factor Xa (R&D Systems) and thrombin (MilliporeSigma) were obtained from commercial sources. Assays were performed in a buffer composed of 50 mM HEPES pH 7.4, 1 mM β-mercaptoethanol, 1 mM CaCl2 and 500 μg/ml BSA for furin and 50 mM HEPES pH 7.4, 150 mM NaCl and 0.1% BSA for other proteases. Assays were performed at room temperature using fluorogenic substrates (Boc-RVRR-AMC for furin and TMPRSS13, Boc-QAR-AMC for other proteases). The enzymatic activity was measured via fluorescence (excitation at 360 nm and emission at 460 nm) at room temperature using an HTX Synergy microplate reader (Agilent). Kis for TMPRSS13 and Factor Xa (FXa) were derived from IC50 dose–response curves using the Cheng-Prusoff equation[35] for reversible competitive inhibitors. For matripase, a plot of the enzyme velocity as a function of the inhibitor concentration was fitted with nonlinear regression analysis via the Morrison Ki equation[36] for competitive tight-binding inhibitors.

Another data set is described as follows: in vitro. The note with it: final conc. 0.2 mM, 37 °C. The text has this: Adult male Sprague-Dawley rats, weighing between 225 and 300 g (Charles River Laboratories, St. Constant, Canada), were housed in groups of four per double-decker cage on Aspen shavings in a quiet environment. They were maintained under a 12-h light/dark cycle with unrestricted access to food and water. All experimental protocols received approval from the Animal Care Committee of the Université de Sherbrooke, adhering to the Canadian Council on Animal Care guidelines. The procedures also followed the ARRIVE guidelines (Animals in Research: Reporting In Vivo Experiments) and the United States NIH regulations (Ethics approval ID: 2022–3440). To evaluate the stability of compounds in plasma, 6 rats were anaesthetised with 2 L/min oxygen and 5% isoflurane, after which plasma was collected, pooled, and stored frozen until experiments were performed.
For evaluating plasma stability, rats were anaesthetised using a flow of 2 L/min of oxygen combined with 5% isoflurane. Blood was obtained via cardiac puncture from the left ventricle using a 20 G ½ needle, collected in pre-chilled Vacutainer K2EDTA tubes (367861), and maintained on wet ice. The blood was then centrifuged at 2000 xG for 15 min at 4 °C. Plasma samples were pooled from six rats, aliquoted, and stored at −80 °C. […] To terminate the reaction, 140 μL of a 1:1 acetonitrile-ethanol solution containing 0.25 mM N,N-dimethylbenzamide (used as an internal standard) was added. The resulting mixture was transferred onto an Impact Protein Precipitation filter plate (Phenomenex, California), with a 96-well UPLC plate positioned below to collect the filtrates. Both plates were centrifuged at 500 × g for 10 min at 4 °C. The filtrates were diluted with 30 μL of distilled water before analysis using an Acquity UPLC-MS system class H (column Acquity UPLC protein BEH C18 (2.1 mm × 50 mm), 1.7 μm particles, 130 Å pore size). The peptide’s half-life was determined from the degradation profile utilising the exponential one-phase decay function in GraphPad Prism 9. Mass spectra obtained at time points close to the calculated half-life were compared with those at 0 min (plasma inactivated prior to compound addition) to identify cleavage fragments.

The next data set has as its system human trypsin. In words: Proteolysis assay (stability) with human trypsin. It counts as in vitro ADME. To be noted: human trypsin (isolated protease), pH 7.4, compound final conc. 10 µM, 37 °C. As for the experimental part:
For the proteolysis assay, human trypsin (#T6424, Sigma–Aldrich, Saint-Louis, Missouri, USA) was resuspended in 1 mM HCl and 20 mM CaCl2, pH 3, and diluted to a final concentration of 0.1 mg/ml in PBS buffer (pH 7.4, 10 mM PO43-, 150 mM NaCl). The control peptide R8 and the compounds of interest were added to a 96-well plate (37 °C) to a final concentration of 10 µM. Trypsin (0.1 µg/ml) was added to the wells for 0, 0.5, 1, 2, 4 and 6 h. The plate was quenched with AcN/EtOH (1:1) 1% formic acid and 0.25 mM N,N-dimethylbenzamide (IS) and centrifuged at 4 °C.

Another data set concerns the target T2, WT TMPRSS13 (Homo sapiens, UniProt Q9BYE2).
T2 construct: the full length TMPRSS13 (TMPRSS13-WT); expressed in transfected cells; host or cells: Vero C1008 (Vero E6) cells
T2 sequence (Q9BYE2 326-567 isoform Q9BYE2-6 limits assumed): T1 sequence (Q9BYE2 with tags, fused parts or gaps isoform Q9BYE2-6 limits assumed) with A238R, A240R, A241K
In words: In cellulo inhibitory activity in TMPRSS13-transfected Vero cells. Format: cell-based. To be noted: 10 µM compound, 24 h, media, relative to DMSO; for remaining activity at 10 µM: read-out: residual activity of TMPRSS13. The protocol: Vero C1008 cells were grown in 12-well plates (200K cells per well) and transfected for 24 h via Lipofectamine 3000 (Life Technologies) with one of the following plasmids: pcDNA3.1 (empty vector, EV), pcDNA3.1-TMPRSS13 WT or pcDNA3.1-TMPRSS13-AFAAS-6His. The cells were then washed 2 times with PBS before HCell-100 medium (Wisent) containing the indicated concentrations of each compound or the control condition (0.01% DMSO) was added. After 24 h of incubation with the compounds, the medium was harvested, and 90 μL was placed in 96-well plate wells with 10 µL of 200 μM Boc-RVRR-AMC. Fluorescence was acquired at room temperature in an FLx800 TBE microplate reader, with excitation at 360 nm and emission at 460 nm. The background was then subtracted by removing the signal recorded with the cells transfected with the empty vector (pcDNA3.1). Proteolytic activity results are represented as a percentage of the DMSO-treated condition. The IC50 was calculated via nonlinear regression of the compound concentration relative to the velocity.

Another data set deals with T3, furin (Homo sapiens, UniProt P09958).
T3 construct: purchased R&D Systems
As to the kind of experiment: In vitro inhibition assay, furin, Boc-RVRR-AMC. It counts as biochemical. The protocol: as §1

For a further data set, the target named is T4, thrombin (Homo sapiens, UniProt P00734).
T4 construct: purchased MilliporeSigma
In words: In vitro inhibition assay, thrombin, Boc-QAR-AMC. It counts as biochemical. The protocol:
as §1

A further data set deals with T5, Factor Xa (Homo sapiens, UniProt P00742).
T5 construct: purchased R&D Systems
In words: In vitro inhibition assay, Factor Xa, Boc-QAR-AMC. Format: biochemical. To be noted: Cheng-Prusoff equation. As for the experimental part: as §1

The target of a further data set is T6, matriptase (Homo sapiens, UniProt Q9Y5Y6).
T6 construct: made in house
T6 sequence (Q9Y5Y6 1-855): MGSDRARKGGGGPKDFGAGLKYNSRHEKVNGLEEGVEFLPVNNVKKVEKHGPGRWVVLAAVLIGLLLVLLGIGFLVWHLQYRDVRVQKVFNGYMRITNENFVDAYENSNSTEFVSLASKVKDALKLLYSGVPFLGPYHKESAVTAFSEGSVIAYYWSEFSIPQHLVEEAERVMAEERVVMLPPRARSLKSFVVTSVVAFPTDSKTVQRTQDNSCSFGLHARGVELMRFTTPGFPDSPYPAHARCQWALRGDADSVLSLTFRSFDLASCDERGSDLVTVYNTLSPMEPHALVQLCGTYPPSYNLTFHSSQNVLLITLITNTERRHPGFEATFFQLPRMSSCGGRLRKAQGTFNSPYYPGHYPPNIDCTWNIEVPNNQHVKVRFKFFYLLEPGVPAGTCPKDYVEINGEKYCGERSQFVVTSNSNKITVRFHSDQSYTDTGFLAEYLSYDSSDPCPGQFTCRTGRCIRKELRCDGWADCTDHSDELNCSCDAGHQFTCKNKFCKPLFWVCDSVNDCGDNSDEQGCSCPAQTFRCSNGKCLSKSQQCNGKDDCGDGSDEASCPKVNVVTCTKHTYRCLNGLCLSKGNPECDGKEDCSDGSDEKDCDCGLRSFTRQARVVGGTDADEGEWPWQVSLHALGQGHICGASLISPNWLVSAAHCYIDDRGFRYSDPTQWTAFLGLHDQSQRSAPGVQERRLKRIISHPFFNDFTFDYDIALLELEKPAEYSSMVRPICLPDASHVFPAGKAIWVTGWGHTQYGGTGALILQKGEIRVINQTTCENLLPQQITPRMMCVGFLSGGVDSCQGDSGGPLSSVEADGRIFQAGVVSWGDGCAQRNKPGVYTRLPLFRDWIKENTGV
As to the kind of experiment: In vitro inhibition assay, matriptase, Boc-QAR-AMC. The note with it: Morrison Ki equation, tight-binding. Format: biochemical. As for the experimental part: as §1

Changes are numbered by the printed parent chain. Read-outs that look alike come from different tables or passages of the source.

T3 sequence (P09958 108-794): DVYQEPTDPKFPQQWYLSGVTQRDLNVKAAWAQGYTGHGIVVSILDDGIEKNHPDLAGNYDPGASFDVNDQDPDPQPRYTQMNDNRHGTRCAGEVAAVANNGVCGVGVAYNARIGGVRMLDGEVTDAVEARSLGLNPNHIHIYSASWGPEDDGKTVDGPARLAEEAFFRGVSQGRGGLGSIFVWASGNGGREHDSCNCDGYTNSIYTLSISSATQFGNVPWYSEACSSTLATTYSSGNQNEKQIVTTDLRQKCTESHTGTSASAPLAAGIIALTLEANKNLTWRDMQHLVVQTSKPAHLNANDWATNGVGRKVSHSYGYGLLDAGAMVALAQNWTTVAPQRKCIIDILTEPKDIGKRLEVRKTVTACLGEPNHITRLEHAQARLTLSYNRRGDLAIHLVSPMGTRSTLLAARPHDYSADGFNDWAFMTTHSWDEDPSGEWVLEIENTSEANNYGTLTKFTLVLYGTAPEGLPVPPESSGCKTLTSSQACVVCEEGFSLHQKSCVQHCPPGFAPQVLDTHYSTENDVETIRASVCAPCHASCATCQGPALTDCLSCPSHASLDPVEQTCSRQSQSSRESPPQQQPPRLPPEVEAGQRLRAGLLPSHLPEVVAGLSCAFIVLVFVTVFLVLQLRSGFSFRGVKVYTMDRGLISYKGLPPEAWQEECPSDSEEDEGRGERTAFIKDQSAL
T5 sequence (P00742 235-488 limits assumed): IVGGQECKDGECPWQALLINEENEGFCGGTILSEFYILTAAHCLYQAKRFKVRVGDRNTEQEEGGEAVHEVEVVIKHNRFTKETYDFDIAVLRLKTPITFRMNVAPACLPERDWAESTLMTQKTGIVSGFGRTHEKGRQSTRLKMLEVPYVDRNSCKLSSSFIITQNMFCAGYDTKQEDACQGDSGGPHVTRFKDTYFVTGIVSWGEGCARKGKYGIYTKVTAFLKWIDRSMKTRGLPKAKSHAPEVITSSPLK
T5 sequence (P00742 41-179 partner limits assumed): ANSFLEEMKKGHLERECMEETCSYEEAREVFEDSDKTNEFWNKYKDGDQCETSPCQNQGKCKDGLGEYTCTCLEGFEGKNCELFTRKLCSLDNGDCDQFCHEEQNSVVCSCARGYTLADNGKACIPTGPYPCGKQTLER

For the compound `C[C@H](NC(=O)[C@H](CCC(N)=O)NC(=O)[C@@H](N)CCCNC(=N)N)C(=O)N[C@@H](CCCNC(=N)N)C(=O)c1nc2ccccc2s1` [Compound N-0100], the inhibition constant Ki on TMPRSS13 was determined as 31.4 nM.
On the same count and under the same terms, with `N=C(N)NCCC[C@H](NC(=O)[C@@H]1CCCN1C(=O)[C@H](CCC(N)=O)NC(=O)[C@@H](N)CCCNC(=N)N)C(=O)c1nc2ccccc2s1` [Compound N-0107, RQPR-kbt] the figure was 14.7 nM; with `N=C(N)NCCC[C@H](NC(=O)[C@H](Cc1ccc(O)cc1)NC(=O)[C@H](CCC(N)=O)NC(=O)[C@@H](N)CCCNC(=N)N)C(=O)c1nc2ccccc2s1` [Compound N-0108], 22.3 nM; with `N=C(N)NCCC[C@H](NC(=O)[C@H](Cc1ccc(F)cc1)NC(=O)[C@H](CCC(N)=O)NC(=O)[C@@H](N)CCCNC(=N)N)C(=O)c1nc2ccccc2s1` [Compound N-0136], 17.7 nM.
The compound `N=C(N)NCCC[C@H](NC(=O)[C@H](CCc1ccccc1)NC(=O)[C@H](CCC(N)=O)NC(=O)[C@@H](N)CCCNC(=N)N)C(=O)c1nc2ccccc2s1` [Compound N-0159, RQhFR-kbt] registered a half-life at 0.2 mM in the data set “in vitro” (male, Sprague-Dawley, rat, pooled rat plasma (K2EDTA), Mean half-life, Plasma) of 9 min. Also, the “Mean half-life, Plasma” value in the data set “in vitro” (rat plasma (male)) turned out to be 8.97 min. In addition, the half-life at 10 µM in the data set on human trypsin was 38.4 h. The inhibition constant Ki at TMPRSS13 was found to be 10.3 nM. The remaining activity at 10 µM at WT TMPRSS13 worked out at 37.7%.
Take `C[C@H](NC(=O)[C@H](CCC(N)=O)NC(=O)[C@@H](N)CCCCNC(=N)N)C(=O)N[C@@H](CCCNC(=N)N)C(=O)c1nc2ccccc2s1` [Compound N-0179]: the Ki at TMPRSS13 came to 24.8 nM.
As for `C[C@H](NC(=O)[C@H](CCC(N)=O)NC(=O)[C@H](CCCNC(=N)N)NC(=O)c1ccccc1)C(=O)N[C@@H](CCCNC(=N)N)C(=O)c1nc2ccccc2s1` [Compound N-0182, PhCO-RQAR-Kbt], on TMPRSS13, the Ki came out at 28.5 nM.
Regarding `N=C(N)NCCC[C@H](NC(=O)[C@H](Cc1ccccc1)NC(=O)CCCC(N)=O)C(=O)c1nc2ccccc2s1` [Compound N-0388, (H)-QFR-Kbt], the inhibition constant (Ki) on furin is greater than 10000 nM; at thrombin it was greater than 10000 nM; at Factor Xa, 1200 ± 167 nM; at matriptase, 24.2 nM; on TMPRSS13, 1440 nM. Besides, the “residual activity of TMPRSS13” value on WT TMPRSS13 (10 µM) was 92%. Besides, on WT TMPRSS13 (Vero), the remaining activity at 10 µM stood at 72%.
Take `C[C@H](NC(=O)CCCCNC(=N)N)C(=O)N[C@@H](Cc1ccccc1)C(=O)N[C@@H](CCCNC(=N)N)C(=O)c1nc2ccccc2s1` [Compound N-0439, (H)-RAFR-Kbt]: the Ki on TMPRSS13 stood at 35.9 nM.
Take `N=C(N)NCCCCC(=O)N[C@@H](CCC(N)=O)C(=O)N[C@@H](CC1CCCCC1)C(=O)N[C@@H](CCCNC(=N)N)C(=O)c1nc2ccccc2s1` [Compound N-0678]: the Ki at TMPRSS13 is 30 nM.
As to `N=C(N)NCCCCC(=O)N[C@@H](CCC(N)=O)C(=O)N[C@@H](CCc1ccccc1)C(=O)N[C@@H](CCCNC(=N)N)C(O)c1nc2ccccc2s1` (stereo partly drawn) [N-0430(OH), (H)-RQhFR-(OH)bt], on TMPRSS13, the inhibition constant Ki is greater than 10000 nM.

Source of the values: PMC11843629, “Development of ketobenzothiazole-based peptidomimetic TMPRSS13 inhibitors with low nanomolar potency” (Journal of Enzyme Inhibition and Medicinal Chemistry, 2025).
